# According to US10610526B2 (priority 2015, dated 2020):
# Key:
# [1] = target: T1, α6/3β2β3 nAChRs (Homo sapiens, UniProt Q15825); assay: cell-based; settings: read-out: Agonist Effect Emax
# [2] = target: T1, α6/3β2β3 nAChRs
# [3] = target: T2, α3β4α5 nAChRs (Homo sapiens, UniProt P30926+P32297); assay: cell-based; settings: read-out: Agonist Effect Emax
# [4] = target: T2, α3β4α5 nAChRs
# [5] = target: α4β2 nAChRs (Homo sapiens, UniProt P17787+P43681); assay: cell-based; format: cell-based
# [6] = target: α7 nAChRs (Homo sapiens, UniProt P36544); format: cell-based
# [7] = rat, in vivo; cited from earlier work
# T2 sequence (P32297 32-505): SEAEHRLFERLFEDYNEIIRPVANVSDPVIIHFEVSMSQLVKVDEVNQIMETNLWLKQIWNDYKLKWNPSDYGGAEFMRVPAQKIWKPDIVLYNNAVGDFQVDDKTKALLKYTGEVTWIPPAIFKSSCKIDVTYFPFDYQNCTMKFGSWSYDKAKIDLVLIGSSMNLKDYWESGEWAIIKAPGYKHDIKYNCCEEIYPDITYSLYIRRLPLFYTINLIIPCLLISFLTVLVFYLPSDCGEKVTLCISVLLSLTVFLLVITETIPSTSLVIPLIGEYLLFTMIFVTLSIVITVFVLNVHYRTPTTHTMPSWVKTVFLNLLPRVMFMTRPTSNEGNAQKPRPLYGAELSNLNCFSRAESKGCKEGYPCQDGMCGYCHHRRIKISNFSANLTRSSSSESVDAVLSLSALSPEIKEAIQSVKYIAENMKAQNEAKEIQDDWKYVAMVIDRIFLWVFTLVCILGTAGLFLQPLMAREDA
# T2 sequence (P30926 22-498): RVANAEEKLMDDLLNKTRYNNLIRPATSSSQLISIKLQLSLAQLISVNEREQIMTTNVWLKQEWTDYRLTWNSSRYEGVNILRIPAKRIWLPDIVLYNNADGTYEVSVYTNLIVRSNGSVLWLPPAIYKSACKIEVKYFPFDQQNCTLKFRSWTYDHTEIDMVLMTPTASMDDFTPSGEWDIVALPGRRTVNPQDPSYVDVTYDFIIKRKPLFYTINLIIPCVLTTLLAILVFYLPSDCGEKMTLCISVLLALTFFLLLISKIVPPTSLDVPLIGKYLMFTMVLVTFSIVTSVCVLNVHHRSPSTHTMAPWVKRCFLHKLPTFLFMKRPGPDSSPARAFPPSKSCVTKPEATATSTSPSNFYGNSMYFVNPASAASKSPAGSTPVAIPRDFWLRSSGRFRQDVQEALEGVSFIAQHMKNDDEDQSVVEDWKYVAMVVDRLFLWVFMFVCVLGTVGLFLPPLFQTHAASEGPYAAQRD
# T2 sequence (P30532 23-468 partner): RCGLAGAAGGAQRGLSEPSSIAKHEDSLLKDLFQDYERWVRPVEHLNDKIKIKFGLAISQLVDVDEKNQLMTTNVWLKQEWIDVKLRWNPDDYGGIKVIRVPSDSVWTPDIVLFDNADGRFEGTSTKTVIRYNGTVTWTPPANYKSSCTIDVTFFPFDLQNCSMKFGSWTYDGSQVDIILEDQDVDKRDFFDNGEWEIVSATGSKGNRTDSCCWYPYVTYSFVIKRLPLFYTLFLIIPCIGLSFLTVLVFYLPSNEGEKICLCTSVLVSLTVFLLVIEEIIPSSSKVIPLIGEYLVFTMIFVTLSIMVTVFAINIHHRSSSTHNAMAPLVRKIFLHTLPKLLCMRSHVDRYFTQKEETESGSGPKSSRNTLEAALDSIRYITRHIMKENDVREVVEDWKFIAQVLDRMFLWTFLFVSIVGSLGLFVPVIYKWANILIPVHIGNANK
# Sequence of α7 nAChRs (P36544 23-502): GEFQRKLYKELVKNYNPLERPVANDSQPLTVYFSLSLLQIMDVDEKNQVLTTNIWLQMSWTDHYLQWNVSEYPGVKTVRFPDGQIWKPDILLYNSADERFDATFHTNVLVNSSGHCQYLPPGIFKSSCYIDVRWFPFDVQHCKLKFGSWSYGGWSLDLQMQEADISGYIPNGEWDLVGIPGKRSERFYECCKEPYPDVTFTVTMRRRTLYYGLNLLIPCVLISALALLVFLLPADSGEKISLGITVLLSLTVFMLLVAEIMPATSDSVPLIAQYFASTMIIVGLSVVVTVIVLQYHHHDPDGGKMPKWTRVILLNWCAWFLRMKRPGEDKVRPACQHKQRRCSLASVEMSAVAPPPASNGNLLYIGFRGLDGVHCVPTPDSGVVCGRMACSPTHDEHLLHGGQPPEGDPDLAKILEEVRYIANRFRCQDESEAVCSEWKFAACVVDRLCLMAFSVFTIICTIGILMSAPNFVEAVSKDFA
# T1 sequence (Q15825 26-239 limits assumed): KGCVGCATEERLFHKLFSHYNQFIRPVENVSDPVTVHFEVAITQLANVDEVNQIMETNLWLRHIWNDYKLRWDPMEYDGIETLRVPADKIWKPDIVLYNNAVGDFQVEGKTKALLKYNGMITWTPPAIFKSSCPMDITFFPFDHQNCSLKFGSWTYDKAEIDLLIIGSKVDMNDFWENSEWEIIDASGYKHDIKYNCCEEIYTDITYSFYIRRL
# T1 sequence (P17787 26-238 limits assumed, further chain): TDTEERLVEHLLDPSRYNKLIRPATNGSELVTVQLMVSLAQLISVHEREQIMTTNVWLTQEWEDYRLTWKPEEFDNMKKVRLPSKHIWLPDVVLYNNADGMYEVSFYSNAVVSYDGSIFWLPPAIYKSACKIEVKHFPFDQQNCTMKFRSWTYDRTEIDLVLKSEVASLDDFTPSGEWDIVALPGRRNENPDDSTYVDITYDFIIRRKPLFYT
# T1 sequence (Q05901 22-237 limits assumed, further chain): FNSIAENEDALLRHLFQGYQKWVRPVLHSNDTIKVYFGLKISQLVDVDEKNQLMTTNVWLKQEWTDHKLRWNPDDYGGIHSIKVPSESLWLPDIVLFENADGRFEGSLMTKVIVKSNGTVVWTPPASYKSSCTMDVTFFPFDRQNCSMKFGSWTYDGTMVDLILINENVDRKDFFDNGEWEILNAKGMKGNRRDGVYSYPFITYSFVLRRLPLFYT
# Sequence of α4β2 nAChRs (P43681 29-627 limits assumed): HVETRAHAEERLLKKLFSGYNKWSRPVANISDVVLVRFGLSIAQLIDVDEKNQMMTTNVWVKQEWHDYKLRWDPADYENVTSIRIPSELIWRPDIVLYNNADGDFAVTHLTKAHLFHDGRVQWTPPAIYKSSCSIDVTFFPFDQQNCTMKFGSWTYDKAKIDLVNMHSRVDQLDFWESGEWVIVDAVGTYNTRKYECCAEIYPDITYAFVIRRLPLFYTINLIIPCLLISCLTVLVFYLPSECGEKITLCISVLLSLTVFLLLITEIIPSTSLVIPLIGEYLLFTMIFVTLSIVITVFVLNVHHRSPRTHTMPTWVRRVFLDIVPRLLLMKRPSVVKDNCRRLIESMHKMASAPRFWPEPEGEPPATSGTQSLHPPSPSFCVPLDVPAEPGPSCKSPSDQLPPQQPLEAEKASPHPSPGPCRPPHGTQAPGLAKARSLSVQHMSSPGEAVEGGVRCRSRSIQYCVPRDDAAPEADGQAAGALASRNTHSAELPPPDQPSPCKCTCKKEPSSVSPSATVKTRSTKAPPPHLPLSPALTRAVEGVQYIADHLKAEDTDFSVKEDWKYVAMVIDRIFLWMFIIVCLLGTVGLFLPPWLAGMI
# Sequence of α4β2 nAChRs (P17787 26-502): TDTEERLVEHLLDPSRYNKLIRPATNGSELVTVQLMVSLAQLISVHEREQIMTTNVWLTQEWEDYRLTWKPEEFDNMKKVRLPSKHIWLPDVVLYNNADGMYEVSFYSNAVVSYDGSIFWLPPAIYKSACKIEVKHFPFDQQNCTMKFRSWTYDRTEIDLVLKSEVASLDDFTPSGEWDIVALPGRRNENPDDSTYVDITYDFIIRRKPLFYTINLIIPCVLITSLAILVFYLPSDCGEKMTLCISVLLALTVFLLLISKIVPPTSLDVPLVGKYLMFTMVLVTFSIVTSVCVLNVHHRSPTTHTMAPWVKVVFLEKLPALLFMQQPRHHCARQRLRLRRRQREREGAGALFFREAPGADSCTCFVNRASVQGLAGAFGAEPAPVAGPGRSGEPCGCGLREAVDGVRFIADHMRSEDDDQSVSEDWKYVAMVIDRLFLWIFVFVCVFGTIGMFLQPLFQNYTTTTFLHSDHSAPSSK
SMILES,Emax [1],Agonist Effect Hillslope [2],Antagonist Effect Hillslope [2],Emax [3],Agonist Effect Hillslope [4],Antagonist Effect Hillslope [4],Agonist Effect Hillslope [5],Antagonist Effect Hillslope [5],Agonist Effect Emax [2],Agonist Effect Hillslope [6],Antagonist Effect Hillslope [6],Agonist Effect Emax [4],agonist character at human α4β2 nAChRs [5],Emax ([5]; read-out: Agonist Effect Emax),agonist character at human α6/3β2β3 nAChRs [2],agonist character at human α7 nAChRs [6],agonist character at human α3β4α5 nAChRs [4],carcinogenicity [7]
"CN1CCCC1c1cccnc1 (racemic) [Synthetic RS racemic nicotine, RS-Nicotine]",91%,−0.67,1.36,65%,−2.13,1.52,–,–,–,–,–,–,–,–,–,–,–,–
"CN1CCC[C@H]1c1cccnc1 [Alchem S nicotine, S nicotine]",–,−0.81,0.97,–,−1.46,1.34,−0.81,1.01,95%,−3.15,3.06,87%,–,–,–,–,–,–
"CN1CCCC1c1cccnc1 (stereo not drawn) [Ref. nicotine (Sigma-Aldrich), nicotine]",100%,−0.74,0.72,100%,−1.48,1.59,−0.80,0.85,–,−2.23,–,–,–,–,–,–,–,–
"CN1CCC[C@H]1c1cccnc1 [Sigma-Aldrich S nicotine, S nicotine]",–,−0.69,0.96,–,−1.91,1.38,−0.84,0.94,100%,−2.49,2.76,84%,–,–,–,–,–,–
"CN1CCC[C@@H]1c1cccnc1 [Synthetic R nicotine, R nicotine]",70%,−0.92,1.07,21%,−2.37,0.95,−0.87,0.67,–,−2.37,2.55,–,partial agonist,28%,"full, weak agonist","full, weak agonist","partial, weak agonist",–
"CN1CCC[C@H]1c1cccnc1 [Synthetic S nicotine, S nicotine]",97%,−0.70,1.10,96%,−1.48,1.11,–,–,–,–,–,–,–,–,–,–,–,–
"CN1CCCC1c1cccnc1 (stereo not drawn) [synthetic nicotine, nicotine]",–,–,–,–,–,–,–,–,–,–,–,–,–,–,–,–,–,not carcinogenic
